Results published in patent publication US20250369124A1, “IMIDAZOLINE-SUGAR CONJUGATE COMPOSITIONS AND METHODS FOR INHIBITING CORROSION” (Ecolab USA Inc., priority 2024, published 2025).
Where “and” joins values, the source holds several entries; their conditions need not be identical. Equal values may be shown once. Entries after “also recorded” stand apart in the source; their conditions may differ.

What was measured:
[1] = Physical stability / water solubility of the inhibitor formulation (observation); format: physicochemical; settings: for physical stability of the formulation: 418.4 mM solution in water
[2] = Wheel box test (NACE publication ID182), corrosion of carbon steel coupons in CO2-saturated brine/oil; settings: for corrosion inhibitor performance (in words): wheel box test
Description: To determine the efficacy of the compositions as corrosion inhibitors, a wheel box test was used. It is a testing methodology from NACE publication ID182. The method is used to assess the degree of protection afforded to a metal surface that is in contact with water laden with carbon dioxide (C02). The wheel box test is a test that is often used in the field for comparative corrosion inhibitor performance tests. The standard test conditions used in the performance test are in Table 1.
A continuous wheel box test procedure was used to compare the performance of the corrosion inhibitor formulations of the invention in mitigating the corrosion of carbon steel in solutions saturated with carbon dioxide. Into a set of bottles containing the desired brine and oil mixtures, Table 1, clean and pre-weighed coupons were immersed. The solution was purged with carbon dioxide, after which the solutions were dosed with the various concentrations of the formulations. After purging the headspace with carbon dioxide, the bottles were immediately capped to prevent aerial exposure.
Blanks, comprising bottles of untreated mixtures, were used to determine the baseline corrosion rate under the test conditions. The bottles were placed on a rotating wheel under incubation at 80° C. for a period of 24 hours. Following the completion of the incubation, the bottles were retrieved and left to cooled to room temperature. The coupons were removed from the test solutions, cleaned, dried, sandblasted and re-weighed. By comparing the mass loss of the coupons immersed in treated solutions versus the mass loss for coupons placed in untreated solutions, the corrosion rate and protection efficiency were calculated.

[3] = 5 ppm of Corrosion Inhibitor, low dosage comparison, method of Example 4
[4] = 10 ppm of Corrosion Inhibitor, low dosage comparison, method of Example 4
[5] = 25 ppm of Corrosion Inhibitor, low dosage comparison, method of Example 4
[6] = 50 ppm of Corrosion Inhibitor, low dosage comparison, method of Example 4
[7] = 5000 ppm inhibitor, 80° C., 24 hours, CO2 saturated, 80% ASTM Seawater brine / 20% LVT-200
[8] = 20000 ppm inhibitor, 80° C., 24 hours, CO2 saturated, 80% ASTM Seawater brine / 20% LVT-200
[9] = 50000 ppm inhibitor, 80° C., 24 hours, CO2 saturated, 80% ASTM Seawater brine / 20% LVT-200

| Compound | physical stability of the formulation [1] | % Protection [2, 3] [%] | % Protection [2, 4] [%] | % Protection [2, 5] [%] | % Protection [2, 6] [%] | % Protection [2, 7] [%] | % Protection [2, 8] [%] | % Protection [2, 9] [%] | corrosion inhibitor performance (in words) [2] | further results |
| --- | --- | --- | --- | --- | --- | --- | --- | --- | --- | --- |
| CCCCCCCC/C=C\CCCCCCCC1=NCCN1CCN [Comparative Formulation, Acetate, reference compound] | physically unstable | 14 | 24 | 42 | 55 | 89 | 89 | 90 | robust even at low treatment doses | % Protection ([2]; 500 ppm inhibitor, 80° C., 24 hours, CO2 saturated, 80% ASTM Seawater brine / 20% LVT-200, Acetate): 88% and 89%; % Protection ([2]; 1000 ppm inhibitor, 80° C., 24 hours, CO2 saturated, 80% ASTM Seawater brine / 20% LVT-200, Acetate): 89% and 90%; % Protection ([2]; 2000 ppm inhibitor, 80° C., 24 hours, CO2 saturated, 80% ASTM Seawater brine / 20% LVT-200, Acetate): 90% and 89%; % Protection ([2]; 10000 ppm inhibitor, 80° C., 24 hours, CO2 saturated, 80% ASTM Seawater brine / 20% LVT-200, Acetate): 89% and 90%; average protection efficiency ([2]; average of Table 3 (500-50000 ppm)): 89% |
| CC(=O)O.CCCCCCCC/C=C\CCCCCCCC1=NCCN1CCNC1OC(CO)C(O)C(O)C1O (stereo not shown) [Formula 1, (Z)-2-((2-(2-(heptadec-8-en-1-yl)-4,5-dihydro-1H-imidazol-1-yl)ethyl)amino)-6-(hydroxymethyl)tetrahydro-2H-pyran-3,4,5-triol acetate salt] |  | 22 | 32 | 54 | 63 | 94 |  |  | perform significantly better than the comparative sample even at low dosage rates | % Protection ([2]; 500 ppm inhibitor, 80° C., 24 hours, CO2 saturated, 80% ASTM Seawater brine / 20% LVT-200): 95%; % Protection ([2]; 1000 ppm inhibitor, 80° C., 24 hours, CO2 saturated, 80% ASTM Seawater brine / 20% LVT-200, listed as Formulation 1, acetate salt): 93% and 94%; % Protection ([2]; 2000 ppm inhibitor, 80° C., 24 hours, CO2 saturated, 80% ASTM Seawater brine / 20% LVT-200, listed as Formulation 1, acetate salt): 93% and 94%; % Protection ([2]; 10000 ppm inhibitor, 80° C., 24 hours, CO2 saturated, 80% ASTM Seawater brine / 20% LVT-200, listed as Formulation 1, acetate salt): 95% and 94%; % Protection ([2]; 20000 ppm inhibitor, 80° C., 24 hours, CO2 saturated, 80% ASTM Seawater brine / 20% LVT-200, listed as Formulation 1, acetate salt): 96% and 95%; % Protection ([2]; 50000 ppm inhibitor, 80° C., 24 hours, CO2 saturated, 80% ASTM Seawater brine / 20% LVT-200, listed as Formulation 1, acetate salt): 95% and 94% |
| CC(=O)[O-].CCCCCCCC/C=C\CCCCCCCC1=[N+](CC(O)c2ccccc2)CCN1CCNC1OC(CO)C(O)C(O)C1O (stereo not shown) [Formula 2, (Z)-2-(heptadec-8-en-1-yl)-3-(2-hydroxy-2-phenylethyl)-1-(2-((3,4,5-trihydroxy-6-(hydroxymethyl)tetrahydro-2H-pyran-2-yl)amino)ethyl)-4,5-dihydro-1H-imidazol-3-ium acetate salt] | physically stable | 28 | 36 | 57 | 73 |  | 94 | 94 |  | solubility in water [1]: high solubility in water; % Protection ([2]; 500 ppm inhibitor, 80° C., 24 hours, CO2 saturated, 80% ASTM Seawater brine / 20% LVT-200, listed as Formulation 2, acetate salt): 91% and 92%; % Protection ([2]; 1000 ppm inhibitor, 80° C., 24 hours, CO2 saturated, 80% ASTM Seawater brine / 20% LVT-200): 92%; % Protection ([2]; 2000 ppm inhibitor, 80° C., 24 hours, CO2 saturated, 80% ASTM Seawater brine / 20% LVT-200, listed as Formulation 2, acetate salt): 91% and 92%; % Protection ([2]; 5000 ppm inhibitor, 80° C., 24 hours, CO2 saturated, 80% ASTM Seawater brine / 20% LVT-200, listed as Formulation 2, acetate salt): 92% and 93%; % Protection ([2]; 10000 ppm inhibitor, 80° C., 24 hours, CO2 saturated, 80% ASTM Seawater brine / 20% LVT-200, listed as Formulation 2, acetate salt): 93% and 94%; corrosion inhibitor performance (in words) ([2]; acetate salt): greatly improved corrosion inhibitor performance even at low dosages; also recorded: highly effective; also recorded: perform significantly better than the comparative sample even at low dosage rates |
